What was measured:
[1] = target: T1, Fatty acid hydroperoxide lyase, chloroplastic (Solanum lycopersicum, UniProt K4CF70); test: Inhibition of recombinant Solanum lycopersicum (tomato) fatty acid 13-hydroperoxide lyase using (13S)-HPOT substrate by spectrophotometry
T1 sequence (K4CF70 whole entry): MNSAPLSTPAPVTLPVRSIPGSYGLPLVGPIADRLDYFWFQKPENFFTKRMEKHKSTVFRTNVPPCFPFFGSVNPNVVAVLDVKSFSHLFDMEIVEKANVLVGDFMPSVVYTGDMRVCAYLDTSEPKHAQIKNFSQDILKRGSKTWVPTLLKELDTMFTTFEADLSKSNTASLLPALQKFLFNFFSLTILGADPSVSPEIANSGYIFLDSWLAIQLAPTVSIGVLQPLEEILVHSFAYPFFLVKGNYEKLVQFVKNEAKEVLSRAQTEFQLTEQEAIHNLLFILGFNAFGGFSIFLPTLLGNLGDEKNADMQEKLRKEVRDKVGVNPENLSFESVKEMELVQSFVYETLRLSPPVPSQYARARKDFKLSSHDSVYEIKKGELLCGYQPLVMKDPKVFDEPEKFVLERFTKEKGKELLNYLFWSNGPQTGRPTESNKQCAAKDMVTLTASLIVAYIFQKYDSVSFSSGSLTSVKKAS

[2] = target: T1, Fatty acid hydroperoxide lyase, chloroplastic; test: Binding affinity to recombinant Solanum lycopersicum (tomato) fatty acid 13-hydroperoxide lyase by optical difference spectroscopy

SMILES | IC50 [1] [µM] | Kd [2] [µM]
Clc1ccc(C(Cn2ccnc2)OCc2ccccc2)c(Cl)c1 (centres undefined) | 39 | 13.5
Clc1ccc(C(Cn2ccnc2)OCc2ccccc2Cl)c(Cl)c1 (centres undefined) | > 100 | 
Clc1cccc(COC(Cn2ccnc2)c2ccc(Cl)cc2Cl)c1 (centres undefined) | > 100 | 
Clc1ccc(C(Cn2ccnc2)OCc2ccc(Cl)nc2)c(Cl)c1 (centres undefined) | > 100 | 
Clc1ccc(C(Cn2ccnc2)OCc2cccc(Cl)c2Cl)c(Cl)c1 (centres undefined) | 46 | 
Clc1ccc(C(Cn2ccnc2)OCc2ccc(Cl)c(Cl)c2)c(Cl)c1 (centres undefined) | > 100 | 
Fc1ccc(COC(Cn2ccnc2)c2ccc(Cl)cc2Cl)c(F)c1 (centres undefined) | > 100 | 
Fc1ccc(F)c(COC(Cn2ccnc2)c2ccc(Cl)cc2Cl)c1 (centres undefined) | > 100 | 
Fc1ccc(COC(Cn2ccnc2)c2ccc(Cl)cc2Cl)cc1F (centres undefined) | > 100 | 
Fc1cc(F)cc(COC(Cn2ccnc2)c2ccc(Cl)cc2Cl)c1 (centres undefined) | > 100 | 
Clc1ccc(C(Cn2ccnc2)OCc2c(Cl)cccc2Cl)c(Cl)c1 (centres undefined) [ISOCONAZOLE] | > 100 | 
Clc1ccc(COC(Cn2ccnc2)c2ccc(Cl)cc2Cl)c(Cl)c1 (centres undefined) [MICONAZOLE] | 65 | 
CC(Cc1ccc(O)c(O)c1)C(C)Cc1ccc(O)c(O)c1 (centres undefined) [NORDIHYDROGUAIARETIC ACID] | 50 | 
